Measurements taken from EP0769958B1, “INHIBITORS OF LEUKOCYTE ADHESION” (ATHENA NEUROSCIENCES, INC., priority 1994, dated 1996).
Entries after “also recorded” stand apart in the source; their conditions may differ. Bridge positions count the residues as written; N and C are the ends. Ends that are not written are not given here. Peptide text beside a SMILES is read from it.

Legend:
VLA-4 = target: T1, VLA-4 (Homo sapiens, UniProt P05556+P13612); assay: Jurkat interaction with soluble VCAM-1 (sVCAM-1-IgG), FACS assay of Example 6; assay type: cell-based; settings: for inhibition of interaction of sVCAM-1-IgG with Jurkat cells: Mn+2 and 15/7 present
T1 construct: endogenous in cells; host or cells: Jurkat cells
T1 sequence (P13612 34-1032): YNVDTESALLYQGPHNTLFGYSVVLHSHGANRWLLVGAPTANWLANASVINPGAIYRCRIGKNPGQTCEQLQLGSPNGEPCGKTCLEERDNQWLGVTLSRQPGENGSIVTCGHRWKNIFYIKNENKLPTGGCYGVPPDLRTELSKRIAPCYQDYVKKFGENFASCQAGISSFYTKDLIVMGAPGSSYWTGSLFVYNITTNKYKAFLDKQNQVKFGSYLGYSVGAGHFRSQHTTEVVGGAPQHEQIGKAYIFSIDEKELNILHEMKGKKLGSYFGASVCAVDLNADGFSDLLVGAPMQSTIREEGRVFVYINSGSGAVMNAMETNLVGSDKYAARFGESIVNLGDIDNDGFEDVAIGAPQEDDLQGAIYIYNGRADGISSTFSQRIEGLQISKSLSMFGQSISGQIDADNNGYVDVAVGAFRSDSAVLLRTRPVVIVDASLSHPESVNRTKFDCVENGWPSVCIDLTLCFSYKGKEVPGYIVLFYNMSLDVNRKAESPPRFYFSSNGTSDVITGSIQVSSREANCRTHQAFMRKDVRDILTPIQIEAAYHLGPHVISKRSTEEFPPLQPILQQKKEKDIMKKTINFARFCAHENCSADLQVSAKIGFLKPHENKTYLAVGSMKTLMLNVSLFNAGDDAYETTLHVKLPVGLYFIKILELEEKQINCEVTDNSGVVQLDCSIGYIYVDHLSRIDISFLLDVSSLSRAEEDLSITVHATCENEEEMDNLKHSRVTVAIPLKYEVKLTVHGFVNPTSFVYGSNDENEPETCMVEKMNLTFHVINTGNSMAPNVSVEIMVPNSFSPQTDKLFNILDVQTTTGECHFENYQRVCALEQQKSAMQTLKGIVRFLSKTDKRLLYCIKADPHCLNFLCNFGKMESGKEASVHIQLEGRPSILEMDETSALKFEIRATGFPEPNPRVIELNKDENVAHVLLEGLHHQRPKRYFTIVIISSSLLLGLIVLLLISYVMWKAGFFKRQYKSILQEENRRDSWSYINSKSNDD
T1 sequence (P05556 21-798): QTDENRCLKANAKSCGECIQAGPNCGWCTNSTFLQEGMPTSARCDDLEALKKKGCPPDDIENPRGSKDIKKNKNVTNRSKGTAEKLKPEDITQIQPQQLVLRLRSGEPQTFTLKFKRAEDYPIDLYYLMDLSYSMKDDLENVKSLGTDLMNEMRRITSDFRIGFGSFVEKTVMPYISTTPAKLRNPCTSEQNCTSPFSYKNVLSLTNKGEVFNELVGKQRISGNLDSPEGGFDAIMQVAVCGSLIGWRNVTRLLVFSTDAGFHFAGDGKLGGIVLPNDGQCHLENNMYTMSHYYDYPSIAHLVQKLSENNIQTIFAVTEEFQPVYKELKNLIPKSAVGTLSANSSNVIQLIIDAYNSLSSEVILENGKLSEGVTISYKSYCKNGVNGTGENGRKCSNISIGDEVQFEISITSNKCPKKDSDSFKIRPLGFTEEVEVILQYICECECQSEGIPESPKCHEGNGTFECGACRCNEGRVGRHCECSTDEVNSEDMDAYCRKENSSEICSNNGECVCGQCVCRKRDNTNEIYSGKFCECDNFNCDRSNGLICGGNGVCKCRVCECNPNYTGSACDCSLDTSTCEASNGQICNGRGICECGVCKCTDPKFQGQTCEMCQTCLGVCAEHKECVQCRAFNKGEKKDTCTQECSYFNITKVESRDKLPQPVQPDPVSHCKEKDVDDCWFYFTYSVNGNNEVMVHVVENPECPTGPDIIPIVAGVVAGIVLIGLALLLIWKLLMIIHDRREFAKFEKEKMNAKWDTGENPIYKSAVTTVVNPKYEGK
Excerpt: VCAM-1 was expressed as a soluble fusion protein. The construct expressed the seven extracellular domains of VCAM-1 on the N-terminus, and the human IgG1 heavy chain constant region on the C-terminus. Interaction of the soluble construct with Jurkat cells was monitored by standard FACS analysis, using a fluorescently labeled antibody directed against the construct's human IgG tail as a marker.
The activity of VLA-4 can be regulated. 15/7 is a monoclonal antibody that recognizes an activated conformation of VLA-4 and locks the molecule in the active state, thereby enhancing VLA-4-mediated cell adhesion.
Peptides of different length, and with various amino acid substitutions were synthesized based on the sequence of the CDR3 region of the antibody 21/6 (EGYYGNYGVYA) (SEQ ID No. 4). The peptides were then tested for their ability to inhibit Jurkat interaction with sVCAM-1-IgG in the FACS assay described in Example 6. IC50 values were determined for each peptide using this assay.

VLA-4 integrin = target: T2, VLA-4 integrin (Homo sapiens, UniProt P05556+P13612); assay: Adhesion of Jurkat cells to peptide-BSA conjugates coated onto plastic; assay type: cell-based; settings: peptide conjugated to carrier protein, exposed to the plastic at 3 µg/mL; Figure 1
T2 construct: endogenous in cells; host or cells: Jurkat cells
T2 sequence (P13612 34-1032): as the sequence (P13612 34-1032) above
T2 sequence (P05556 21-798): as the sequence (P05556 21-798) above
Method: The peptide used in this example was synthesized based on the sequence of the anti-α4 integrin antibody 21/6 (CGGEGYYGNYGVYA, SEQ ID No. 1). In this example the peptide was conjugated to a large carrier protein via the linker region that was synthesized as part of the peptide itself (in italics). The conjugated peptide was then coated onto plastic, and the ability of the conjugate to support cell adhesion was tested. This method is based on a report by Wayner and Kovach^40.
As a positive control, the fibronectin peptide described by Wayner was synthesized, conjugated to carrier protein, and tested for cell adhesion in parallel with SEQ ID NO. 1 (CGGEILDVPST, SEQ ID No. 2). Both peptide conjugates were exposed to the plastic at a concentration of 3 µg/mL. […] Adhesion was not affected by an antibody against β2 integrin (IOT18), a distinct cell adhesion molecule that is also expressed on the surface of Jurkat cells. Thus, like peptide SEQ ID NO. 2, peptide SEQ ID NO. 1 interacts with Jurkat in an α4 integrin-specific fashion.

Compound: NC(=O)C[C@@H]1NC(=O)CNC(=O)[C@H](Cc2ccccc2)NC(=O)CNC(=O)[C@@H](N)CSSC[C@@H](C(=O)O)NC(=O)[C@H](Cc2ccc(O)cc2)NC(=O)[C@H](CO)NC(=O)[C@H](Cc2c[nH]cn2)NC(=O)[C@H](CCC(=O)O)NC1=O [SEQ ID No. 31] (H-CGFGNEHSYC-OH; disulfide 1-10)
- inhibition of interaction of sVCAM-1-IgG with Jurkat cells (VLA-4; result in words): particularly good inhibition

Compound: CC[C@H](C)[C@@H]1NC(=O)[C@H](CCC(N)=O)NC(=O)[C@H]([C@@H](C)O)NC(=O)[C@H](CCCNC(=N)N)NC(=O)[C@@H](N)CSSC[C@@H](C(=O)O)NC(=O)[C@H](CO)NC(=O)[C@H](CC(=O)O)NC1=O [SEQ ID No. 35] (H-CRTQIDSC-OH; disulfide 1-8)
- inhibitory activity compared with parent or linear peptide (VLA-4; result in words, relative to SEQ ID No. 4 (Nos. 27, 17) or SEQ ID No. 34 (No. 35)): more active than the linear peptide

Compound: NC(=O)C[C@@H]1NC(=O)CNC(=O)[C@H](Cc2ccccc2)NC(=O)[C@H](Cc2ccc(O)cc2)NC(=O)[C@@H](N)CSSC[C@@H](C(=O)O)NC(=O)[C@H](Cc2ccc(O)cc2)NC(=O)[C@H](CO)NC(=O)[C@H](Cc2c[nH]cn2)NC(=O)[C@H](CCC(=O)O)NC1=O [SEQ ID No. 63] (H-CYFGNEHSYC-OH; disulfide 1-10)
- IC50 (VLA-4; per Example 6: inhibition of Jurkat interaction with sVCAM-1-IgG, FACS, in the presence of Mn+2 and 15/7): ≤ 50 µM

Compound: CGGEGYYGNYGVYA [SEQ ID No. 1]
- adhesion of Jurkat cells to immobilized peptide conjugate (VLA-4 integrin): bound equally well

Compound: CGGEILDVPST [SEQ ID No. 2, fibronectin peptide described by Wayner, conjugated to carrier protein; positive control, reference compound]
- adhesion of Jurkat cells to immobilized peptide conjugate (VLA-4 integrin): bound equally well

Compound: STLTMNPVSF [SEQ ID No. 40]
- inhibition of interaction of sVCAM-1-IgG with Jurkat cells (VLA-4; result in words): inhibitory; also recorded: quite active in a linear form
